Patent US8183272B2, “Indanyl compounds” (Daiichi Sankyo Company, Limited, priority 2008, dated 2012)

These molecules were tested against T1, human calcium-sensing receptor (CaSR) (Homo sapiens, UniProt P41180) (assay: Inhibitory activity on calcium-sensing receptor (CaSR) using intracellular calcium increase as an indicator (FLIPR, CHO/hCaSR)). Conditions: CHO/hCaSR cells; intracellular Ca increase induced by CaCl2; test compound 1.05 to 10,000 nM.
T1 construct: expressed in transfected cells; host or cells: CHO cells (CHO/hCaSR)
T1 sequence (P41180 20-1078): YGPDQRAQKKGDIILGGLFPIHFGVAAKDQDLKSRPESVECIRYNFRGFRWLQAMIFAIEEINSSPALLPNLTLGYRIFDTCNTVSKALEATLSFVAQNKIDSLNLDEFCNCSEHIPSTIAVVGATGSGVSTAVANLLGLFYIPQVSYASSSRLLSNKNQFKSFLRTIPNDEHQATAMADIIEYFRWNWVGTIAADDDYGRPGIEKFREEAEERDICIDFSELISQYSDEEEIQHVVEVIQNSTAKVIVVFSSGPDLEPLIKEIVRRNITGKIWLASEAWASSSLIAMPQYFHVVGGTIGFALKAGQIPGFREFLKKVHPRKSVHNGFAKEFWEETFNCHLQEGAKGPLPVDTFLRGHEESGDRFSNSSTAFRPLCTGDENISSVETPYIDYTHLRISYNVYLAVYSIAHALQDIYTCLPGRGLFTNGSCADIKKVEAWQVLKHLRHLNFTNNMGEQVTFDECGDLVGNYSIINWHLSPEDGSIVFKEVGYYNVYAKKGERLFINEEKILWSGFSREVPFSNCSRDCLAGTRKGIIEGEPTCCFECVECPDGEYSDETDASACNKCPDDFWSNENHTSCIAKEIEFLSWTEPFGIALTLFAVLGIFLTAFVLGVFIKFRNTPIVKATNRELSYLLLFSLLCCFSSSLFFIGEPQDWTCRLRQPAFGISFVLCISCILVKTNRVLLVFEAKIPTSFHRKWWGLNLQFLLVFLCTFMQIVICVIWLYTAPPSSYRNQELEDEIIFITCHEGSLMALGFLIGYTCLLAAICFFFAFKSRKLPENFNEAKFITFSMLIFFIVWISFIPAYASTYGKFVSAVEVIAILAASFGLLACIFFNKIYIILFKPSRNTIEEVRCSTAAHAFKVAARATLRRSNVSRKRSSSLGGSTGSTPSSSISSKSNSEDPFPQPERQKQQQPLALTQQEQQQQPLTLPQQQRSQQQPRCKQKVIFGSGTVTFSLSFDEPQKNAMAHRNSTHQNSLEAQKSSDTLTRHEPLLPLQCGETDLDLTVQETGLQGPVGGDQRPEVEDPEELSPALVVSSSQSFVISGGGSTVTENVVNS
Assay type: cell-based
Procedure: Evaluation of inhibitory activity on calcium-sensing receptor (CaSR) using intracellular calcium increase as an indicator
The preparation which is prepared by adding CHO/hCaSR to F12 medium (manufactured by Invitrogen) containing 10% fetal bovine serum to have 2×10^5 cells/mL was applied to a 384-well in an amount of 50 μL/well, and then incubated overnight in a CO2 incubator. The culture supernatant was completely removed, the assay buffer (20 mM HEPES, HBSS (Ca and Mg free) containing 2.5 mM probenecid, pH 7.4) containing Calcium 3 (manufactured by Molecular Devices), i.e., a fluorescent intracellular calcium indicator, was added thereto in an amount of 25 μL/well, and the mixture was maintained for 1 hour in a CO2 incubator. Meanwhile, Calcium 3 was prepared according to the protocol enclosed in FLIPR Calcium 3 Assay Kit (manufactured by Molecular Devices). After maintaining it for 1 hour, a solution in which the test compound is prepared to have 2.1 to 20,000 nM (final concentration of 1.05 to 10,000 nM) by an assay buffer was added thereto in an amount of 25 μL/well, and maintained for 15 minutes in a CO2 incubator. Then, the CaCl2 solution prepared to have […] by using the assay buffer was added in an amount of 25 μL/well, and the resulting intracellular Ca increase (i.e., fluorescence intensity) was measured over time using a fluorescence imaging plate reader (FLIPR, manufactured by Molecular Devices). From the data obtained, the difference between the fluorescence intensity before the addition of CaCl2 solution and the maximum fluorescence intensity after the addition of CaCl2 solution was calculated, and the 50% inhibition concentration (IC50) of the test compound was obtained.

How did the IC50 turn out when `CCC[C@@H](OC[C@H](O)CNC(C)(C)CC1Cc2ccccc2C1)c1ccccc1CCC(=O)O` [Example 21] was run?
Its IC50 is no more than 2350 nM.

For `C[C@@H](OC[C@H](O)CNC(C)(C)CC1Cc2ccccc2C1)c1cccc(F)c1CCC(=O)O` [Example 7, 3-{2-[(1R)-1-{[(2R)-3-{[1-(2,3-Dihydro-1H-inden-2-yl)-2-methylpropan-2-yl]amino}-2-hydroxypropyl]oxy}ethyl]-6-fluorophenyl}propanoic acid], which IC50 is on record?
Its IC50 is no more than 2400 nM.

For `C[C@@H](OC[C@H](O)CNC(C)(C)CC1Cc2ccccc2C1)c1ccccc1CCCC(=O)O` [Example 2, 4-{2-[(1R)-1-{[(2R)-3-{[1-(2,3-Dihydro-1H-inden-2-yl)-2-methylpropan-2-yl]amino}-2-hydroxypropyl]oxy}ethyl]phenyl}butanoic acid], which IC50 is on record?
The IC50 was no more than 2420 nM.

With `C[C@@H](OC[C@H](O)CNC(C)(C)CC1Cc2ccccc2C1)c1ccccc1CCOCC(=O)O` [Example 83, (2-{2-[(1R)-1-{[(2R)-3-{[1-(2,3-Dihydro-1H-inden-2-yl)-2-methylpropan-2-yl]amino}-2-hydroxypropyl]oxy}ethyl]phenyl}ethoxy)acetic acid] as the molecule, how does the IC50 read?
Its IC50 is no more than 2340 nM.

For `C[C@@H](OC[C@H](O)CNC(C)(C)CC1Cc2ccccc2C1)c1cc(F)ccc1CCC(=O)O` [Example 9, 3-{2-[(1R)-1-{[(2R)-3-{[1-(2,3-Dihydro-1H-inden-2-yl)-2-methylpropan-2-yl]amino}-2-hydroxypropyl]oxy}ethyl]-4-fluorophenyl}propanoic acid], which IC50 is on record?
Its IC50 is no more than 2400 nM.

With `CCC[C@@H](OC[C@H](O)CNC(C)(C)CC1Cc2ccccc2C1)c1cccc(F)c1CCC(=O)O` [Example 53] as the molecule, how does the IC50 read?
The IC50 was no more than 2270 nM.

`C[C@@H](OC[C@H](O)CNC(C)(C)CC1Cc2ccccc2C1)c1ccccc1CCC(=O)O` [Example 1, 3-{2-[(1R)-1-{[(2R)-3-{[1-(2,3-Dihydro-1H-inden-2-yl)-2-methylpropan-2-yl]amino}-2-hydroxypropyl]oxy}ethyl]phenyl}propanoic acid] was tested. Which IC50 did it give?
The IC50 was no more than 2500 nM.

How did the IC50 turn out when `Cc1ccc(CCC(=O)O)c([C@@H](C)OC[C@H](O)CNC(C)(C)CC2Cc3ccccc3C2)c1` [Example 6, 3-{2-[(1R)-1-{[(2R)-3-{[1-(2,3-Dihydro-1H-inden-2-yl)-2-methylpropan-2-yl]amino}-2-hydroxypropyl]oxy}ethyl]-4-methylphenyl}propanoic acid] was run?
Its IC50 is no more than 2420 nM.

With `CCC[C@@H](OC[C@H](O)CNC(C)(C)CC1Cc2ccccc2C1)c1cc(Cl)ccc1CCC(=O)O` [Example 76] as the molecule, how does the IC50 read?
The IC50 was no more than 2190 nM.

How did the IC50 turn out when `CC[C@@H](OC[C@H](O)CNC(C)(C)CC1Cc2ccccc2C1)c1cc(F)c(F)cc1CCC(=O)O` [Example 79] was run?
The IC50 was no more than 2250 nM.

With `CCOc1ccc(CCC(=O)O)c([C@@H](C)OC[C@H](O)CNC(C)(C)CC2Cc3ccccc3C2)c1` [Example 56] as the molecule, how does the IC50 read?
The IC50 was no more than 2270 nM.

`C[C@@H](OC[C@H](O)CNC(C)(C)CC1Cc2ccccc2C1)c1cc(F)c(Cl)cc1CCC(=O)O` [Example 34] was tested. Which IC50 did it give?
The IC50 was no more than 2240 nM.

Which IC50 does the source give for `C[C@@H](OC[C@H](O)CNC(C)(C)CC1Cc2ccccc2C1)c1cc(C(F)(F)F)ccc1CCC(=O)O` [Example 49] here?
The IC50 was no more than 2170 nM.

For `CCOc1ccc(CCCCC(=O)O)c([C@@H](C)OC[C@H](O)CNC(C)(C)CC2Cc3ccccc3C2)c1` [Example 58], which IC50 is on record?
Its IC50 is no more than 2150 nM.

`C[C@@H](OC[C@H](O)CNC(C)(C)CC1Cc2ccccc2C1)c1ccc(F)cc1CCCCC(=O)O` [Example 44] was tested. Which IC50 did it give?
Its IC50 is no more than 2270 nM.

For `CC[C@@H](OC[C@H](O)CNC(C)(C)CC1Cc2ccccc2C1)c1ccccc1CCC(=O)O` [Example 18], which IC50 is on record?
Its IC50 is no more than 2420 nM.

How did the IC50 turn out when `C[C@@H](OC[C@H](O)CNC(C)(C)CC1Cc2ccccc2C1)c1ccccc1CCCOCC(=O)O` [Example 85, (3-{2-[(1R)-1-{[(2R)-3-{[1-(2,3-Dihydro-1H-inden-2-yl)-2-methylpropan-2-yl]amino}-2-hydroxypropyl]oxy}ethyl]phenyl}propoxy)acetic acid] was run?
The IC50 was no more than 2270 nM.

With `C[C@@H](OC[C@H](O)CNC(C)(C)CC1Cc2ccccc2C1)c1ccccc1CCCCCC(=O)O` [Example 67] as the molecule, how does the IC50 read?
The IC50 was no more than 2280 nM.

With `Cc1ccc([C@@H](C)OC[C@H](O)CNC(C)(C)CC2Cc3ccccc3C2)c(CCCCC(=O)O)c1` [Example 43] as the molecule, how does the IC50 read?
Its IC50 is no more than 2280 nM.

Which IC50 does the source give for `C[C@@H](OC[C@H](O)CNC(C)(C)CC1Cc2ccccc2C1)c1cccc(C(F)(F)F)c1CCC(=O)O` [Example 10, 3-{2-[(1R)-1-{[(2R)-3-{[1-(2,3-Dihydro-1H-inden-2-yl)-2-methylpropan-2-yl]amino}-2-hydroxypropyl]oxy}ethyl]-6-(trifluoromethyl)phenyl}propanoic acid] here?
The IC50 was no more than 2170 nM.

For `C[C@@H](OC[C@H](O)CNC(C)(C)CC1Cc2ccccc2C1)c1ccccc1CCCCCCC(=O)O` [Example 68], which IC50 is on record?
Its IC50 is no more than 2220 nM.

Which IC50 does the source give for `C[C@@H](OC[C@H](O)CNC(C)(C)CC1Cc2ccccc2C1)c1cc(F)c(F)cc1CCC(=O)O` [Example 26] here?
The IC50 was no more than 2310 nM.

Which IC50 does the source give for `C[C@@H](OC[C@H](O)CNC(C)(C)CC1Cc2ccccc2C1)c1ccc(C(F)(F)F)cc1CCC(=O)O` [Example 11, 3-{2-[(1R)-1-{[(2R)-3-{[1-(2,3-Dihydro-1H-inden-2-yl)-2-methylpropan-2-yl]amino}-2-hydroxypropyl]oxy}ethyl]-5-(trifluoromethyl)phenyl}propanoic acid] here?
The IC50 was no more than 2170 nM.

How did the IC50 turn out when `Cc1cc(-c2ccccc2[C@@H](C)OC[C@H](O)CNC2(CC3Cc4ccccc4C3)CC2)ccc1C(=O)O` [Example 12, 2′-[(1R)-1-{[(2R)-3-{[1-(2,3-Dihydro-1H-inden-2-ylmethyl)cyclopropyl]amino}-2-hydroxypropyl]oxy}ethyl]-3-methylbiphenyl-4-carboxylic acid] was run?
Its IC50 is no more than 2200 nM.

For `C[C@@H](OC[C@H](O)CNC(C)(C)CC1Cc2ccccc2C1)c1ccccc1CCCCC(=O)O` [Example 13, 5-{2-[(1R)-1-{[(2R)-3-{[1-(2,3-Dihydro-1H-inden-2-yl)-2-methylpropan-2-yl]amino}-2-hydroxypropyl]oxy}ethyl]phenyl}pentanoic acid], which IC50 is on record?
The IC50 was no more than 2350 nM.

With `CC[C@@H](OC[C@H](O)CNC(C)(C)CC1Cc2ccccc2C1)c1cc(F)cc(F)c1CCC(=O)O` [Example 80] as the molecule, how does the IC50 read?
Its IC50 is no more than 2250 nM.

How did the IC50 turn out when `COc1ccc([C@@H](C)OC[C@H](O)CNC(C)(C)CC2Cc3ccccc3C2)c(CCC(=O)O)c1` [Example 16] was run?
The IC50 was no more than 2340 nM.

`COc1cccc([C@@H](C)OC[C@H](O)CNC(C)(C)CC2Cc3ccccc3C2)c1CCCCC(=O)O` [Example 37] was tested. Which IC50 did it give?
Its IC50 is no more than 2210 nM.

`C[C@@H](OC[C@H](O)CNC(C)(C)CC1Cc2ccccc2C1)c1c(F)cccc1CCC(=O)O` [31 low polarity, 3-{2-[(1R)-1-{[(2R)-3-{[1-(2,3-dihydro-1H-inden-2-yl)-2-methylpropan-2-yl]amino}-2-hydroxypropyl]oxy}ethyl]-3-fluorophenyl}propanoic acid] was tested. Which IC50 did it give?
The IC50 was no more than 2400 nM.

With `CCOc1cccc([C@@H](C)OC[C@H](O)CNC(C)(C)CC2Cc3ccccc3C2)c1CCC(=O)O` [Example 62] as the molecule, how does the IC50 read?
Its IC50 is no more than 2270 nM.
